Reference: patent publication US9187784B2, “EphA4 is a disease modifier in motor neuron disease” (VIB VZW, priority 2011, dated 2015)
Marks after values point to notes of the source that are not given here.

What was measured:
TDP43A315T embryos = test: mutant TDP-43-induced motor axonopathy in zebrafish embryos; type: in vivo; details: zebrafish embryos
Protocol: FIG. 14: Inhibiting EphA4 signaling rescues motor axonopathies induced by overexpression of mutant TDP-43 and knockdown of Smn. Y-axes show motor axon length of zebrafish embryos (30 hpf) expressing TDP^WT (black bar) or TDP^A315T (white bar) (Panels A, B) or with unaltered (black bar) or reduced expression levels of Smn (white bar) (Panels C, D). Smn knockdown was established by injection of 3 ng (Panel C) or 6 ng (Panel D) atg-smn morpholino. Ctr-smn morpholino was injected as control. RTK1 signaling was inhibited by injection of 3 ng atg-RTK1 morpholino (shaded bars) (Panels A, C) or by treatment with C1 (500 μM, shaded bars) (Panels B, D). Injection of ctr-RTK1 morpholino and application of a 1/250 dilution of DMSO were used as control. ANOVA and Bonferroni's multiple comparison tests were used for statistical analysis: TDP^A315T/atg-RTK1 (n=24) vs. TDP^A315T/ctr-RTK1 (n=34, p=7.86×10^−5, Panel A), TDP^A315T/C1 (n=21) vs. TDP^A315T/DMSO (n=21, p=0.045, Panel B), atg-smn/atg-RTK1 (n=35) vs. atg-smn/ctr-RTK1 (n=35, p=4.93×10^−8, Panel C), atg-smn/C1 (n=91) vs. atg-smn/DMSO (n=105, p=1.27×10^−6, Panel D). Error bars are s.e.m.
Mann-Whitney test was used to determine significance between TDPA315T/ctr-RTK1 (4.5 ng) vs. TDPA315T/atg-RTK1 (4.5 ng, * p=0.001) and between TDPA315T/control vs. TDPA315T/C1 (° p=0.029). Control=1/250 DMSO and C1=500 μM.
(§1) A morpholino database of translation-blocking morpholinos (atg-mo) was used to perform a morpholino-based knockdown screening in a zebrafish model for ALS.^13 The standard control morpholino (5′-[…]-′3) (SEQ ID NO:4), provided by Gene tools, was used as control. Three nanograms of morpholino were co-injected with […] of SOD1 mRNA and the effect of gene knockdown on the mutant SOD1-induced axonopathy analyzed. Each morpholino was tested in two separate experiments. Only morphologically normal embryos were included for further analysis. Overexpression of SOD1 or TDP-43, applied to validate the protective morpholino, was established by injection of 1.76 ng SOD1 mRNA or 1.43 ng TDP-43 mRNA, respectively. Antisense morpholinos to knockdown zebrafish RTK1, RTK2, Smn and their five base pair-mismatch control morpholinos were developed by Gene tools: atg-RTK1 (5′-[…]-′3) (SEQ ID NO:5), atg-RTK2 (5′-[…]-[…]-′3) (SEQ ID NO:6), splice-RTK2 (5′-[…]-[…]-′3) (SEQ ID NO:7) and atg-smn (5′-[…]-3′) (SEQ ID NO:8). Compound 1 (2,5-dimethylpyrrolyl benzoic acid, Matrix Scientific) dissolved in DMSO was added to the water of 6-hpf-old zebrafish embryos.

[1] = tested on: mutant SOD1-overexpressing fish; test: mutant SOD1-induced motor axonopathy in zebrafish embryos (percentage affected embryos, motor axon length); type: in vivo; details: for % affected embryos: Table 3, SOD1A4V embryos
From the text: FIG. 1: EphA4 knockdown rescues mutant SOD1-induced motor axonopathy. […] Abnormal branching is indicated with arrowhead. Y-axes show motor axon length of zebrafish embryos expressing wild-type SOD1 (black bar, Panels D-G) or mutant SOD1 (white bar, Panels D-G). Knockdown of RTK2 in SOD1A4V- (Panel D), SOD1G93A- (Panel E) and SOD1G37R- (Panel F) expressing fish was established by co-injection of increasing amounts of atg-RTK2 morpholino (shaded bars). RTK1 expression was inhibited in SOD1A4V-expressing fish by co-injection of atg-RTK1 morpholino (shaded bars, Panel G). Ctr-RTK2 and ctr-RTK1 were used as control. ANOVA and Bonferroni's multiple comparison tests were used for statistical analysis. Comparing axonal length in SOD1A4V fish injected with ctr-RTK2 (n=39) vs. different doses atg-RTK2: 3 ng (n=43, p=0.0059), 4.5 ng (n=37, p=0.0016, Panel D), SOD1G93A: ctr-RTK2 (n=60) vs. atg-RTK2: 1.5 ng (n=55, p=0.015), 3 ng (n=51, p=2.82×10-9), 4.5 ng (n=46, p=2.22×10-15, Panel E), SOD1G37R: ctr-RTK2 (n=37) vs. atg-RTK2: 3 ng (n=25, p=0.027), 4.5 ng (n=36, p=0.0018, Panel F) and SOD1A4V: ctr-RTK1 (n=49) vs. atg-RTK1: 1.5 ng (n=51, p=2.51×10-7), 3 ng (n=64, p=7.99×10-10), 4.5 ng (n=54, p<1×10-20, Panel G). Western blot of SOD1WT or SOD1A4V (1.76 ng) expressing zebrafish embryos (30 hpf), co-injected with either ctr-RTK1 or atg-RTK1 (4.5 ng). Sixty embryos were used per group with actin as the loading control (H). Immunostaining of rtk1 (green) in rhombomeres 3 and 5 and of ephrin-b2 (magenta) in rhombomere 4 in zebrafish embryos injected with either ctr-RTK1 or atg-RTK1 (4.5 ng). RTK1-depleted embryos show disorganized rhombomere boundaries (arrowhead, I, Scale bar 50 μm). Error bars are s.e.m.
FIG. 2: RTK2 knockdown protects motor axons against SOD1^A4V-induced injury. Effect of RTK2 knockdown, established by injection of splice-rtk2 morpholino, on the motor axon length of SOD1^A4V-expressing zebrafish embryos (30 hpf). SOD1^WT-expressing fish and a non-functional five-base pair-mismatch control morpholino (ctr-RTK2) were used as control (Panel A). ANOVA and Bonferroni's multiple comparison tests were used for statistical analysis: SOD1^A4V/ctr-RTK2 (n=56) vs. SOD1^A4V/spl-RTK2 (n=60, 1.79×10^−4). Spl-RTK2 was designed against the exon 2 splice site of the zebrafish RTK2 pre-mRNA and alternatively skipped out exon 2. RT-PCR on non-transgenic fish (lane 1), ctr-RTK2-injected fish (lane 2) and spl-RTK2-injected fish (lane 3) at 30 hpf. Functional RTK2 mRNA, containing exon 2, is indicated by the 818-bp product (upper band) while non-functional RTK2 mRNA, lacking exon 2 is indicated by the 156-bp product (lower band), 60 embryos each group (Panel B). Error bars are s.e.m.
(§2) FIG. 12: Pharmacological inhibition of EphA4 receptor signaling protects against mutant SOD1 pathology in vivo. Effect of treatment with Compound 1 (C1, 500 μM) on the motor axon length of zebrafish embryos (30 hpf). DMSO (1/250 dilution) was used as control (Panel A). ANOVA and Bonferroni's multiple comparison tests were used for statistical analysis: SOD1^A4V/C1 (n=68) vs. SOD1^A4V/DMSO (n=76, p=3.54×10^−5). Effect of KYL-peptide (3 mM) treatment of 60-day-old SOD1^G93A rats on disease onset (Panel B) and survival (Panel C). Artificial CSF (ACSF) was used as control. Average disease onset: 133 days (treated, n=21) versus 125 days (control, n=17, T-test p=0.044). Average survival: 148 days (treated, n=21) versus 139 days (controls, n=17, T-test p=0.041). Error bars are s.e.m.
Effect of RTK2 knockdown (established by injection of atg-RTK2 morpholino) on the percentage of affected wild-type SOD1 or mutant SOD1 (A4V, G93A, G37R) zebrafish embryos (30 hpf). Ctr-RTK2 morpholino was used as control. An embryo was considered as affected when it had more than 10% abnormally branched motor axons. Significance of mtSOD1/ctr-RTK2 (4.5 ng) vs. mtSOD1/atg-RTK2 (4.5 ng) was determined by Mann-Whitney test, * p=0.0075, ° p=0.039 and # p=0.0052. […]

zebrafish embryos = test: morpholino-based smn knockdown: abnormally branched and truncated motor axons in zebrafish embryos; type: in vivo; details: for truncation affected (%): affected = more than 5% truncated motor axons; for branching affected (%): affected = more than 10% abnormally branched motor axons
Protocol: FIG. 15: Smn knockdown reduces the motor axon length in zebrafish embryos. […] The non-functional five-base pair-mismatch control morpholino (ctr-smn) was used as control. ANOVA and Bonferroni's multiple comparison tests were used for statistical analysis: ctr-smn (6 ng, n=42) vs. 3 ng atg-smn (n=28, p=8.99×10^−3), 4.5 ng atg-smn (n=30, 3.37×10^−7), 6 ng atg-smn (n=41, p<1×10-20). Error bars are s.e.m.
Effect of smn knockdown, induced by injection of increasing amounts of atg-smn morpholino, on the percentage affected embryos. An embryo was considered as affected when it had more than 10% abnormally branched or more than 5% truncated motor axons. Significance of ctr-smn (6 ng) vs. atg-smn (6 ng) was determined by Mann-Whitney test, *p=3×10-4, ° p=1.3×10-4.
as §1

EphA4 = EphA4 (Homo sapiens, UniProt P54764); details: WO2004/028551; cited from earlier work
Sequence of EphA4 (P54764 20-986, species assumed): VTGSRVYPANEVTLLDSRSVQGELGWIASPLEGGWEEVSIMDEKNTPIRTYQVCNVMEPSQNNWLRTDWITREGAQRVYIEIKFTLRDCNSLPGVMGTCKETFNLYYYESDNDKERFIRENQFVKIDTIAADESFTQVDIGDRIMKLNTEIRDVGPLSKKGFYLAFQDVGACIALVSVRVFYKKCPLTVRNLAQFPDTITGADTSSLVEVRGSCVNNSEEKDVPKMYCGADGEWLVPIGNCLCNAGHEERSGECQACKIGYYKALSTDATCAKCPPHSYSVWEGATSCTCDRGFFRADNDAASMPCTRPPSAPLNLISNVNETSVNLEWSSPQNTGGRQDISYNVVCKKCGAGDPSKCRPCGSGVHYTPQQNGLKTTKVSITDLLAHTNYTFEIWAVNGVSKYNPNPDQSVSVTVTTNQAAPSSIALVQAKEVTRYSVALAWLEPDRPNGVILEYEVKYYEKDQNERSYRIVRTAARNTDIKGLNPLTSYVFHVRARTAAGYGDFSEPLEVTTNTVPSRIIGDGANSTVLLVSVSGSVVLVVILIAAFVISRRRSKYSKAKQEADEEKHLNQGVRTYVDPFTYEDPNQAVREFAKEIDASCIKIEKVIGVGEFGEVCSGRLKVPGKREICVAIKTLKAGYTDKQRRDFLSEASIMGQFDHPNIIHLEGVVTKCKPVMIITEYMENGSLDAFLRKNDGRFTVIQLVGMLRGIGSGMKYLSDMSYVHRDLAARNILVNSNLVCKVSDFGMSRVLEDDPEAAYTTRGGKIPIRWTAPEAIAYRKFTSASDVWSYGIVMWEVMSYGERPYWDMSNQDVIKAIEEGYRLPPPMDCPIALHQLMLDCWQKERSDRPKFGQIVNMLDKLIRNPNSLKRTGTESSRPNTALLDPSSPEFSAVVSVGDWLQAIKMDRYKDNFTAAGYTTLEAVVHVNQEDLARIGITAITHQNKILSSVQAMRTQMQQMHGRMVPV

SOD1G93A rat = test: KYL peptide intracerebroventricular treatment of SOD1G93A rats (disease onset, survival); type: in vivo
Protocol: as §2
EphA4−/− mice were mated with SOD1G93A mice for at least six generations. All experiments were littermate and gender controlled. […] The EphA4 blocking peptide ([…] (SEQ ID NO:1)-95% purity; Eurogentec) was a 3 mM solution in artificial cerebrospinal fluid and infused into the left lateral ventricle of 60-day-old female rats, using mini-osmotic pumps (28 days, 0.25 μl/h, Model 2004, Alzet) as previously described.^46 Disease onset, progression and survival of SOD1G93A rats were analyzed by weight and rotarod performance (five times for three minutes at 15 rpm) three times a week. […]

2,5-dimethylpyrrolyl benzoic acid [Compound C1]
effect on outgrowth deficit and aberrant branching induced by mutant TDP-43 (TDP43A315T embryos): rescued the outgrowth deficit and aberrant branching induced by mutant TDP-43

5′-CCTCCCACTGA-AAATGGACAGAGGA-′3 (antisense CCTCCCACTGAAAATGGACAGAGGA; all phosphorodiamidate morpholino (PMO)) [spl-RTK2]
effect on mutant SOD1-induced axonopathy ([1]; SOD1A4V zebrafish embryos, 30 hpf): replicating the protective effect of RTK2 knockdown | % affected embryos ([1]; morpholino 0.4 ng): 40 (30) % | % affected embryos ([1]; morpholino 0.8 ng): 19 (31) % | % affected embryos ([1]; morpholino 1.5 ng): 13* (31) %

5′-CGACATCTTCTGCACCATTGGC-3′ (all phosphorodiamidate morpholino (PMO)) [atg-smn]
truncation affected (%) (zebrafish embryos; morpholino 3 ng): 7% | branching affected (%) (zebrafish embryos; morpholino 3 ng): 39% | truncation affected (%) (zebrafish embryos; morpholino 4.5 ng): 11% | branching affected (%) (zebrafish embryos; morpholino 4.5 ng): 46% | truncation affected (%) (zebrafish embryos; morpholino 6 ng): 42° % | branching affected (%) (zebrafish embryos; morpholino 6 ng): 71* %

KYLPYWPVLSSL (EphA4 inhibitory peptide) [KYL peptide]
binding to EphA4 (EphA4): preferentially bind to EphA4 | Average survival (SOD1G93A rat; KYL-peptide 3 mM intracerebroventricular from day 60, controls 139 days): 148 days | Average disease onset (SOD1G93A rat; KYL-peptide 3 mM intracerebroventricular from day 60, onset by rotarod, control 125 days): 133 days

VTMEAINLAFPG (EphA4 inhibitory peptide) [VTM peptide]
binding to EphA4 (EphA4): preferentially bind to EphA4
